# Where a name gives a salt, the structure may show the parent alone.
# Tests used:
# Assay type in all cases: physicochemical
# [1] = Thermal gravimetric analysis (TGA); conditions: for TGA weight loss of the transition / TGA weight loss transition, interpolated beginning temperature / TGA weight loss transition, temperature of maximum rate of weight loss: sample of the single form (Form H formed from Form E sample); for TGA weight loss transition, interpolated beginning temperature / TGA weight loss transition, temperature of maximum rate of weight loss: ±3° C.
# Experimental: Measurements utilizing thermal gravimetric analysis (TGA) are carried out on a T.A. instruments TGAQ500 analyzer. Mass calibration is performed with 10 and 100 mg certified masses. Temperature calibration is performed with Alumel® and nickel standards (Curie points of respectively 154° C. and 354° C.). Samples are exposed to a constant nitrogen stream of 60 ml/min, and temperature ranges from room temperature to 350° C. at a 5° C./min rate. The quantity of product tested is between 2 and 13 mg. The sample is deposited in an open aluminum sample pan, which is itself placed in a platinum pan. The temperatures identified from TGA scans of a particular sample are accurate to within ±3° C. Simultaneous TGA and DSC measurements are carried out using a […] thermal analysis system produced by the […] corporation. A liquid nitrogen cooling system makes it possible to work at temperatures below 20° C. The emitted gases, upon sample heating, are carried by a transfer capillary tube to a Pfeiffer mass spectrometer, the capillary tube heated to 150° C. The mass spectrometer can analyze molecular fragments at <<m/e>> ratios between 1 and 200 uma. A sample with a mass between 1 and 27 mg is contained in an open concave aluminum sample pan (75 μL capacity) exposed to a nitrogen stream. The sample is heated at a rate of 1 or 5° C./min.
# [2] = Differential scanning calorimetry (DSC)
# Experimental: Differential scanning calorimetry (DSC) analyses are performed using a T.A Instruments Q1000 thermal analyser. Analyses are carried out using nitrogen purge gas flowing at an average rate of 50 ml/min. A mechanical compressor cools the system, and equilibrates the instruments being used at ambient temperature between analyses. […] Energy calibration is performed with a certified indium calibrator (melting enthalpy of 28.45 J/g), applying a heating rate of 5° C./min. The temperatures identified from DSC scans of a particular sample are accurate to within ±3° C. […] Modulated temperature differential scanning calorimetry (MTDSC) is also used since deconvolution of the total heat flow into reversing and non-reversing heat flows allows the transitions to be easily identified. The samples were submitted to the same experimental temperature program: after the equilibration of the sample at −5° C., the samples were heated through a modulated program from −5° C. to 210° C. at a rate of 1° C./min. […] Experiments are performed using crimped aluminium sample pans or open pans in some cases. The quantity of product analysed is typically between 2 and 13 mg.
# [3] = Water sorption/desorption cycling (dynamic vapor sorption, DVS) at 25° C., with XRPD before and after; conditions: for XRPD before and after water sorption/desorption cycling: two consecutive cycles, 0% to 90% relative humidity
# Experimental: Water sorption measurements are performed on a DVS-1 automated gravimetric vapor sorption analyser (Surface Measurement Systems Ltd., London, UK). The DVS-1 measures the uptake and loss of vapor gravimetrically using a Cahn D200 recording ultra-microbalance with a mass resolution of ±0.1 μg. The relative humidity around the sample is controlled by mixing saturated and dry carrier gas streams using mass flow controllers. The temperature is maintained within ±0.1° C. by enclosing the entire system in a temperature-controlled incubator. A sample size between 15 and 20 mg is used. In general, the error in % (w/w) identified in a tested sample is ±0.1% (w/w).
# Two protocols are utilized to operate the DVS. In one protocol, a sample is dried at 0% relative humidity (RH) to remove any surface water present and establish a dry, baseline mass. Next, the sample is exposed to the following relative humidity profile: 0%, 10%, 20%, 30%, 40%, 50%, 60%, 70%, 80%, 90%, 80%, 70%, 60%, 50%, 40%, 30%, 20%, 10%, 0%. In some instances, this profile is repeated, yielding 4 sets of data going up and down in RH. In another protocol, the sample is first equilibrated at 40% RH, then it was exposed to the following relative humidity profile: 40%, 50%, 60%, 70%, 80%, 90%, 100%, 90%, 80%, 70%, 60%, 50% 40% 30%, 20% 10%, 0%, 10%, 20%, 30%, 40%. […] If equilibrium state is not reached, the change in relative humidity took place automatically after 360 or 600 minutes. From the complete moisture sorption and desorption profile, an isotherm is calculated using the DVS Advanced Analysis Suite v3.6. All experiments were performed at 25° C.
# [4] = Prolonged exposure to fixed relative humidity or rinsing with water, XRPD before and after; conditions: for crystal form by XRPD after exposure to a relative humidity of 97.5%: month long exposure, ambient temperature
# [5] = Controlled temperature (isothermal) X-ray powder diffraction: thermal stability of the crystalline form; conditions: dry nitrogen; for form conversion as the temperature is raised (isothermal XRPD): ambient to 210° C.
# Experimental: X-ray powder diffraction (XRPD) is performed on various samples of the Citrate Salt using one of three instruments. XRPD measurements with Instrument 1 utilize a Siemens-Bruker D5000 Matic powder diffractometer with a Bragg-Brentano (vertical θ-2θ configuration) parafocusing geometry. X-rays are produced from a sealed cobalt anode running at 40 kV and 30 mA. Two lines are typically emitted: CoKα1 (λ=1.7890 Å) and CoKα2 (λ=1.7929 Å). An iron β-filter limits the CoKβ (λ=1.6208 Å) radiation to about 1% of the diffracted beam at the detector. The primary beam passes through a parallel plate collimator (0.2 mm Soller slits), then through a divergence slit (0.2 mm). Diffracted X-rays are detected with a Braun 50 M multichannel linear detector having a 10°-wide detection window in angle 2θ. Scans are performed from 1.5° to 50.0° in 2θ, the scan time being 10 to 40 seconds per degree in 2θ. The error in the 2θ locations are typically within ±0.10 degrees.
# In Instrument 3, XRPD measurements are performed at different temperatures to elucidate the evolution of crystal structure with temperature. Tests are carried out with a Siemens-Bruker D5000 diffractometer equipped with the Bragg Brentano parafocusing (θ-θ) geometry and an Anton-Paar TTK temperature chamber. Measurements utilize dry nitrogen or nitrogen streams having a particular humidity. The instrument specifications are substantially similar to the Siemens-Bruker D5000 Matic instrument described above (Instrument 1). Temperature is allowed to rise at a rate of 0.05° C./sec. Scans are recorded under the following conditions: a 1.5 to 50.0 degree scan in angle 2θ, 10 to 20 seconds counting time per degree in 2θ. Data are acquired in isotherm mode when the requested temperature is reached.
# [6] = Crystallization of the Citrate Salt (Form A exposed to solvent systems under the conditions of Table 9): form(s) obtained
# Excerpt: In other particular embodiments, solvents such as ethanol, methanol/heptane, MEK/water, n-propanol, isopropanol, isopropanol/water, acetonitrile/water, or methanol may be used to crystallize Form B. More particularly, Form B may be created by taking samples of Form A and exposing them to one of the solvent systems listed above. […] In each instance, Form A of the Citrate Salt is exposed to a solvent or solvent system under the particular conditions listed in Table 9 to generate the particular form(s) or amorphous Citrate Salt.
# [7] = heating rate 5° C./min, A, B, H: melting/decomposition, E: loss of water and conversion to Form H, ±3° C.
# [8] = sample including Forms A and C, 5° C./min, Form C: conversion to Form A, Form A: melting/decomposition
structure (smiles),measurement,setting,value
"CC(C)(O)c1ccc2c(c1)/C(=C/CCN1CC[C@](O)(c3ccc(Cl)cc3)C(C)(C)C1)c1cccnc1CO2 [Form B, citrate salt of (S)-4-(4-Chloro-phenyl)-1-{3-[7-(1-hydroxy-1-methyl-ethyl)-11H-10-oxa-1-aza-dibenzo[a,d]cyclohepten-5-ylidene]-propyl}-3,3-dimethyl-piperidin-4-ol]",TGA weight loss from ambient temperature to about 100° C.,[1]; heating rate 5° C./min,No weight loss is detected
same,TGA weight loss of the transition,[1]; heating rate 5° C./min,about 27.5 % (w/w)
same,"TGA weight loss transition, interpolated beginning temperature",[1]; heating rate 5° C./min,about 180 °C
same,"TGA weight loss transition, temperature of maximum rate of weight loss",[1]; heating rate 5° C./min,192 °C
same,"DSC endothermic transition, Tmax",[2]; heating rate 1° C./min,179 °C
same,"DSC endothermic transition, interpolated beginning temperature",[2]; heating rate 1° C./min,174 °C
same,"DSC endothermic transition, Tmax",[2]; [7],189 °C
same,"DSC endothermic transition, interpolated beginning temperature",[2]; [7],184 °C
same,change in moles of water per mole of anhydrous crystal over relative humidity 0% to 90%,[3]; 25° C.,about 0.4 moles of water per mole of anhydrous crystal
same,change in mass as the relative humidity is changed between 0% and 90%,"[3]; 25° C., dry crystal basis, known to within ±0.1%",about 0.9%
same,XRPD before and after water sorption/desorption cycling,[3]; 25° C.,no structural change
same,"stability when rinsed with water, XRPD before and after the rinsing",[4],stable to 100% relative humidity
same,crystal form by XRPD after exposure to a relative humidity of 97.5%,[4],does not change form
CC(C)(O)c1ccc2c(c1)/C(=C/CCN1CC[C@](O)(c3ccc(Cl)cc3)C(C)(C)C1)c1cccnc1CO2 [batch F1],"stability when rinsed with water, XRPD before and after the rinsing",[4],"loss of lines of Form F and diminution of lines of Form G, while the lines of Form E grow"
same,crystal form by XRPD after exposure to a relative humidity of 0%,[4]; about one month,a mixture of Forms E and B
same,crystal form by XRPD after exposure to a relative humidity of 97.5%,[4],"loss of lines of Form F and diminution of lines of Form G, while the lines of Form E grow"
"CC(C)(O)c1ccc2c(c1)/C(=C/CCN1CC[C@](O)(c3ccc(Cl)cc3)C(C)(C)C1)c1cccnc1CO2 [Form C, citrate salt of (S)-4-(4-Chloro-phenyl)-1-{3-[7-(1-hydroxy-1-methyl-ethyl)-11H-10-oxa-1-aza-dibenzo[a,d]cyclohepten-5-ylidene]-propyl}-3,3-dimethyl-piperidin-4-ol]",form conversion as the temperature is raised (isothermal XRPD),[5],conversion of the Form C crystals to Form A
same,TGA weight loss,[1]; sample including Forms A and C,about 8.22 % (w/w)
same,"TGA weight loss, temperature of maximum rate of weight loss",[1]; sample including Forms A and C,162 °C
same,"TGA weight loss, interpolated beginning temperature","[1]; sample including Forms A and C, Form C: conversion away from Form C, Form A: decomposition/melting",157 °C
same,"DSC endothermic transition between Form C and Form A, Tmax",[2]; heating rate 20° C./min,171 °C
same,"DSC endothermic transition between Form C and Form A, interpolated beginning temperature",[2]; heating rate 20° C./min,165 °C
same,"DSC endothermic transition, Tmax",[2]; [8],166 °C
same,"DSC endothermic transition, interpolated beginning temperature",[2]; [8],about 161 °C
same,XRPD before and after water sorption/desorption cycling,[3]; 25° C.,no structural modification
"CC(C)(O)c1ccc2c(c1)/C(=C/CCN1CC[C@](O)(c3ccc(Cl)cc3)C(C)(C)C1)c1cccnc1CO2 [Citrate Salt, citrate salt of (S)-4-(4-Chloro-phenyl)-1-{3-[7-(1-hydroxy-1-methyl-ethyl)-11H-10-oxa-1-aza-dibenzo[a,d]cyclohepten-5-ylidene]-propyl}-3,3-dimethyl-piperidin-4-ol]",Form(s) identified,"[6]; Crystallization after dissolution THF, followed by a slow evaporation at ambient temperature and atmospheric pressure",A + D
same,Form(s) identified,[6]; Crystallization after dissolution at high temperature in THF/water,A + C
same,Form(s) identified,[6]; Dissolution at ambient temperature in DMSO/water,Amorphous
same,Form(s) identified,[6]; Dissolution in THF/water and azeotropic distillation (isolation in water),Amorphous
same,Form(s) identified,"[6]; Dissolution in dichloromethane/methanol, followed by a quick evaporation at ambient temperature and low pressure",Amorphous
same,Form(s) identified,[6]; Maturation in THF of Forms A and B at ambient temperature,A + C
same,Form(s) identified,[6]; Maturation in water of the amorphous form at ambient temperature,E + F + G
"CC(C)(O)c1ccc2c(c1)/C(=C/CCN1CC[C@](O)(c3ccc(Cl)cc3)C(C)(C)C1)c1cccnc1CO2 [Form E, citrate salt of (S)-4-(4-Chloro-phenyl)-1-{3-[7-(1-hydroxy-1-methyl-ethyl)-11H-10-oxa-1-aza-dibenzo[a,d]cyclohepten-5-ylidene]-propyl}-3,3-dimethyl-piperidin-4-ol]",form conversion as the temperature is raised (isothermal XRPD),[5],converts to Form B
same,"loss of stability (lines unique to the form disappear), isothermal XRPD","[5]; sample containing Forms E, F, and G, steps of 10° C.",above 50 °C
same,TGA weight loss of the transition,[1]; heating rate 5° C./min,6.14 % (w/w)
same,"TGA weight loss transition, interpolated beginning temperature",[1]; heating rate 5° C./min,52 °C
same,"TGA weight loss transition, temperature of maximum rate of weight loss",[1]; heating rate 5° C./min,64 °C
same,"DSC endothermic transition, Tmax",[2]; [7],67 °C
same,"DSC endothermic transition, interpolated beginning temperature",[2]; [7],45 °C
same,"DSC endothermic transition, integrated enthalpy change","[2]; heating rate 5° C./min, transition 2411, conversion of Form E to Form H",178.3 J/g
same,weight change / water uptake between 10% and 90% relative humidity,[3]; 25° C.,about 2.28 % (w/w)
same,weight gain / water uptake as relative humidity is increased from 0% to 10%,[3]; 25° C.,about 5.13 % (w/w)
same,behaviour under 10% relative humidity (observed at 0% relative humidity),[3]; ambient temperatures,fully transforms into form H
same,XRPD before and after water sorption/desorption cycling,[3]; 25° C.,a structure corresponding with Form H after the cycling
